Consider 21 molecules from patent US20230382940A1, “ANTIVIRAL COMPOUNDS AND METHODS OF MAKING AND USING THE SAME” (Gilead Sciences, Inc., priority 2022, published 2023).

For this test, the system named is Human Rhinovirus 1B (HRV1B). As to the kind of experiment: H1-HeLa HRV-CTG 384-well assay, HRV1B, Example X. It counts as cell-based. As to conditions: Rhinovirus A, 96 h; H1-HeLa cells, HRV1B MOI 0.5, 4 days, Celltiter-Glo; read-out: EC50 H1-HeLa_HRV 1B_HRV-CTG 384-well Assay (per Ex. X). The source says:
Example X: H1-HeLa HRV-CTG 384-Well Assay
H1-Hela cell line (ATCC, Manassas, VA, Cat #CRL-1958) was maintained in Dulbecco's […] (DMEM) (Corning, New York, NY, Cat #15-018CM) supplemented with 10% fetal bovine serum (FBS) (Hyclone, Logan, UT, Cat #SH30071-03), and 1× Penicillin-Streptomycin-L-Glutamine (Corning, New York, NY, Cat #30-009-CI). Cells were passaged 2 times per week to maintain sub-confluent densities and were used for experiments at passage 5-30. The Human Rhinovirus 1B (HRV1B) (ATCC, Manassas, VA, Cat #VR-1645), Human Rhinovirus 14 (HRV14) (ATCC, Manassas, VA, Cat #VR-284), and Human Rhinovirus 16 (HRV16) (ATCC, Manassas, VA, Cat #BR-283) was obtained through ATCC. Viral infection was monitored by determining viability of H1-HeLa cells as described below.
Test molecules are prepared in 100% DMSO in 384-well polypropylene plates (Greiner, Monroe, NC, Cat #784201) with 8 compounds per plate in grouped replicates of 4 at 10 serially diluted concentrations (1:3). The serially diluted compounds were transferred to low dead volume Echo plates (Labcyte, Sunnyvale, CA, Cat #LP-0200).
The test compounds were spotted to 384-well assay plates (Greiner, Monroe, NC, Cat #781091) at 200 nL per well using an Echo acoustic dispenser (Labcyte, Sunnyvale, CA). H1-HeLa cells were harvested and suspended in DMEM (supplemented with 2% FBS and 1× Penicillin-Streptomycin-L-Glutamine) and seeded to the pre-spotted assay plates at 5,000 cells per well in 30 μL. HRV1B, HRV14, and HRV16 was diluted in DMEM (supplemented with 2% FBS and 1× Penicillin-Streptomycin-L-Glutamine) at 97.1 million Infectious Units (IU) per mL, 151 million IU per mL and 221 million IU per mL respectively. 10 μL of virus per well was added to the assay plates containing cells and compounds, for an MOI of 0.5, 1.0, and 0.25 respectively. The assay plates were incubated for 4 days at 37° C. and 5% CO2. At the end of incubation, Celltiter-Glo (Promega, Madison, WI, Cat #G7573) was prepared. The assay plates and Celltiter-Glo reagent were equilibrated to room temperature for at least 15 minutes. 40 μL per well of Celltiter-Glo reagent was added and the plates were incubated at room temperature for 15 minutes before reading the luminescence signal on an EnVision multimode plate reader (Perkin Elmer, Waltham, MA). Rupintrivir was used as positive control and DMSO was used as negative control. Values were normalized to the positive and negative controls (as 0% and 100% replication, respectively) and data was fitted using non-linear regression analysis by Gilead's dose response tool. The EC50 value for each compound was defined as the concentration reducing viral replication by 50%.
(In ATP-based viability assays light output follows the ATP content of the culture.)

As for `CCOC(=O)OC[C@@]1(C#N)O[C@@H](c2ccc3c(N)ncnn23)[C@H](O)[C@@H]1O` [Compound 22, ((2R,3S,4R,5S)-5-(4-aminopyrrolo[2,1-f][1,2,4]triazin-7-yl)-2-cyano-3,4-dihydroxytetrahydrofuran-2-yl)methyl ethyl carbonate], the EC50 (commonly the concentration at which the effect is half-maximal) is 9.8 µM.
`COC[C@@H](C)OC(=O)OC[C@@]1(C#N)O[C@@H](c2ccc3c(N)ncnn23)[C@H](O)[C@@H]1O` [Compound 38, ((2R,3S,4R,5S)-5-(4-aminopyrrolo[2,1-f][1,2,4]triazin-7-yl)-2-cyano-3,4-dihydroxytetrahydrofuran-2-yl)methyl ((R)-1-methoxypropan-2-yl) carbonate]: the EC50 was 23.8 µM.
As for `CC[C@H](C)COC(=O)OC[C@@]1(C#N)O[C@@H](c2ccc3c(N)ncnn23)[C@H](O)[C@@H]1O` [Compound 28, ((2R,3S,4R,5S)-5-(4-aminopyrrolo[2,1-f][1,2,4]triazin-7-yl)-2-cyano-3,4-dihydroxytetrahydrofuran-2-yl)methyl ((S)-2-methylbutyl) carbonate], the figure is 3.53 µM.
Next, `CCCCCCOC(=O)OC[C@@]1(C#N)O[C@@H](c2ccc3c(N)ncnn23)[C@H](O)[C@@H]1O` [Compound 19, ((2R,3S,4R,5S)-5-(4-aminopyrrolo[2,1-f][1,2,4]triazin-7-yl)-2-cyano-3,4-dihydroxytetrahydrofuran-2-yl)methyl hexyl carbonate]: 3.57 µM.
In the case of `N#C[C@]1(COC(=O)OC2CC3(CCC3)C2)O[C@@H](c2ccc3c(N)ncnn23)[C@H](O)[C@@H]1O` [Compound 36, ((2R,3S,4R,5S)-5-(4-aminopyrrolo[2,1-f][1,2,4]triazin-7-yl)-2-cyano-3,4-dihydroxytetrahydrofuran-2-yl)methyl spiro[3.3]heptan-2-yl carbonate], the EC50 turned out to be 5.93 µM.
Take `CC(C)CCOC(=O)OC[C@@]1(C#N)O[C@@H](c2ccc3c(N)ncnn23)[C@H](O)[C@@H]1O` [Compound 7, ((2R,3S,4R,5S)-5-(4-aminopyrrolo[2,1-f][1,2,4]triazin-7-yl)-2-cyano-3,4-dihydroxytetrahydrofuran-2-yl)methyl isopentyl carbonate]: the EC50 was 2.81 µM.
As for `N#C[C@]1(COC(=O)OC2CCCCC2)O[C@@H](c2ccc3c(N)ncnn23)[C@H](O)[C@@H]1O` [Compound 21, ((2R,3S,4R,5S)-5-(4-aminopyrrolo[2,1-f][1,2,4]triazin-7-yl)-2-cyano-3,4-dihydroxytetrahydrofuran-2-yl)methyl cyclohexyl carbonate], the EC50 came to 7.87 µM.
Next, `N#C[C@]1(COC(=O)OCc2ccccc2)O[C@@H](c2ccc3c(N)ncnn23)[C@H](O)[C@@H]1O` [Compound 29, ((2R,3S,4R,5S)-5-(4-aminopyrrolo[2,1-f][1,2,4]triazin-7-yl)-2-cyano-3,4-dihydroxytetrahydrofuran-2-yl)methyl benzyl carbonate]: 3.26 µM; `N#C[C@]1(COC(=O)OCC2CCCC2)O[C@@H](c2ccc3c(N)ncnn23)[C@H](O)[C@@H]1O` [Compound 30, ((2R,3S,4R,5S)-5-(4-aminopyrrolo[2,1-f][1,2,4]triazin-7-yl)-2-cyano-3,4-dihydroxytetrahydrofuran-2-yl)methyl (cyclopentylmethyl) carbonate]: 3.12 µM.
For the molecule `CCC(CC)COC(=O)OC[C@@]1(C#N)O[C@@H](c2ccc3c(N)ncnn23)[C@H](O)[C@@H]1O` [Compound 31, ((2R,3S,4R,5S)-5-(4-aminopyrrolo[2,1-f][1,2,4]triazin-7-yl)-2-cyano-3,4-dihydroxytetrahydrofuran-2-yl)methyl (2-ethylbutyl) carbonate], the EC50 worked out at 3.16 µM.
Next, `N#C[C@]1(COC(=O)OC2CCC2)O[C@@H](c2ccc3c(N)ncnn23)[C@H](O)[C@@H]1O` [Compound 17, ((2R,3S,4R,5S)-5-(4-aminopyrrolo[2,1-f][1,2,4]triazin-7-yl)-2-cyano-3,4-dihydroxytetrahydrofuran-2-yl)methyl cyclobutyl carbonate]: 6.08 µM; `CC(C)COC(=O)Nc1ncnn2c([C@@H]3O[C@](C#N)(CO)[C@@H](O)[C@H]3O)ccc12` [Compound 16, Isobutyl (7-((2S,3R,4S,5R)-5-cyano-3,4-dihydroxy-5-(hydroxymethyl)tetrahydrofuran-2-yl)pyrrolo[2,1-f][1,2,4]triazin-4-yl)carbamate]: 50 µM.
Turning to `N#C[C@]1(COC(=O)OCC2CC2)O[C@@H](c2ccc3c(N)ncnn23)[C@H](O)[C@@H]1O` [Compound 32, ((2R,3S,4R,5S)-5-(4-aminopyrrolo[2,1-f][1,2,4]triazin-7-yl)-2-cyano-3,4-dihydroxytetrahydrofuran-2-yl)methyl (cyclopropylmethyl) carbonate], the EC50 came to 5.69 µM.
As for `CCCOCCOC(=O)OC[C@@]1(C#N)O[C@@H](c2ccc3c(N)ncnn23)[C@H](O)[C@@H]1O` [Compound 34, ((2R,3S,4R,5S)-5-(4-aminopyrrolo[2,1-f][1,2,4]triazin-7-yl)-2-cyano-3,4-dihydroxytetrahydrofuran-2-yl)methyl (2-propoxyethyl) carbonate], the figure is 7.31 µM.
As for `CCCCCOC(=O)OC[C@@]1(C#N)O[C@@H](c2ccc3c(N)ncnn23)[C@H](O)[C@@H]1O` [Compound 20, ((2R,3S,4R,5S)-5-(4-aminopyrrolo[2,1-f][1,2,4]triazin-7-yl)-2-cyano-3,4-dihydroxytetrahydrofuran-2-yl)methyl pentyl carbonate], the figure is 4.69 µM.
As to `N#C[C@]1(COC(=O)O[C@@H]2C[C@@H]3C[C@@H]3C2)O[C@@H](c2ccc3c(N)ncnn23)[C@H](O)[C@@H]1O` [Compound 39, ((2R,3S,4R,5S)-5-(4-aminopyrrolo[2,1-f][1,2,4]triazin-7-yl)-2-cyano-3,4-dihydroxytetrahydrofuran-2-yl)methyl ((1R,3r,5S)-bicyclo[3.1.0]hexan-3-yl) carbonate], the EC50 was 8.26 µM.
Next, `N#C[C@]1(COC(=O)OC2CC2)O[C@@H](c2ccc3c(N)ncnn23)[C@H](O)[C@@H]1O` [Compound 23, ((2R,3S,4R,5S)-5-(4-aminopyrrolo[2,1-f][1,2,4]triazin-7-yl)-2-cyano-3,4-dihydroxytetrahydrofuran-2-yl)methyl cyclopropyl carbonate]: 5.32 µM.
Next, `CC(C)(C)CCOC(=O)OC[C@@]1(C#N)O[C@@H](c2ccc3c(N)ncnn23)[C@H](O)[C@@H]1O` [Compound 35, ((2R,3S,4R,5S)-5-(4-aminopyrrolo[2,1-f][1,2,4]triazin-7-yl)-2-cyano-3,4-dihydroxytetrahydrofuran-2-yl)methyl (3,3-dimethylbutyl) carbonate]: 8.63 µM.
As to `N#C[C@]1(COC(=O)OCCc2ccccc2)O[C@@H](c2ccc3c(N)ncnn23)[C@H](O)[C@@H]1O` [Compound 5, ((2R,3S,4R,5S)-5-(4-aminopyrrolo[2,1-f][1,2,4]triazin-7-yl)-2-cyano-3,4-dihydroxytetrahydrofuran-2-yl)methyl phenethyl carbonate], the EC50 came to 3.35 µM.
As for `CC1(C)CC(OC(=O)OC[C@@]2(C#N)O[C@@H](c3ccc4c(N)ncnn34)[C@H](O)[C@@H]2O)C1` [Compound 37, ((2R,3S,4R,5S)-5-(4-aminopyrrolo[2,1-f][1,2,4]triazin-7-yl)-2-cyano-3,4-dihydroxytetrahydrofuran-2-yl)methyl (3,3-dimethylcyclobutyl) carbonate], the figure is 6.74 µM; as for `C[C@H]1CC[C@H](OC(=O)OC[C@@]2(C#N)O[C@@H](c3ccc4c(N)ncnn34)[C@H](O)[C@@H]2O)CC1` [Compound 40, ((2R,3S,4R,5S)-5-(4-aminopyrrolo[2,1-f][1,2,4]triazin-7-yl)-2-cyano-3,4-dihydroxytetrahydrofuran-2-yl)methyl ((1r,4R)-4-methylcyclohexyl) carbonate], 9.48 µM.
